The values below come from US12161750B2, “Antibiotic formulations for lower back pain” (Persica Pharmaceuticals Ltd., priority 2016, dated 2024).

By MIC is commonly meant the smallest concentration in the dilution series that meets the test's criterion for growth inhibition.

Data set [1] is described as follows: In vitro diffusion and release from poloxamer gel embedded in an agar disc (HPLC). To be noted: 100 microliters of poloxamer formulation embedded in an agar disc. It is filed as physicochemical. The protocol:
100 microliters of poloxamer formulation were embedded in an agar disc. The release of loaded compound into media around the agar structure is measured. The assays mimic a disc containing a poloxamer injection. The mass of antibiotic released over 72 h was determined using high-performance liquid chromatography (HPLC).

A further data set relates to Gram-positive bacteria. To be noted: cited from earlier work.
Data set [2] relates to MRSA (methicillin resistant Staphylococcus aureus). The conditions noted are these: formulated with poloxamer 407, sustained local delivery to the infected ear; cited from earlier work.
In data set [3] the test system is S. aureus. The experiment in a line: Sheep model of S. aureus intradiscal infection, therapeutic dosing. It is filed as in vivo. To be noted: for discs sterilized: one hour post infection. From the text:
A sheep model of S. aureus intradiscal infection has been developed to test the in vivo efficacy of antibiotic formulations. Male Charollais or Suffolk cross sheep, approximately 35-40 kg+ at the start of the study were housed according to Home Office guidelines under the Animals (Scientific Procedures) Act 1986 and acclimatised for at least 7 days with straw bedding and access to water. They were fed a Sheep concentrate diet without added antibiotics with additional forage (hay/straw) provided.
The bacterial inoculum (ATCC 29213) is prepared from frozen glycerol/phosphate-buffered saline stock at 2.5×10^6 CFU/ml by dilution to 2×10^4 CFU/ml:
In a therapeutic model, each sheep is anesthetised and given four 0.05 ml (target volume) intradiscal Injections at L1/L2, L2/L3, L3/L4 and L4/5 of S. aureus inoculum (1×10^3 cells/disc), one injection per disc.
(§1) Approximately 1 hour, or at another selected time, after the first injection, each sheep is given a second injection of the test formulation or control formulation. Each disc that was previously successfully injected with bacteria is given a 0.1 ml (target volume) intradiscal injection. As part of the anaesthesia the animal is given analgesics (intra-muscular) in the form of meloxicam at the recommended dosage. This analgesic may be repeated if considered necessary by the named veterinary surgeon. In a prophylactic model, the order of administrations is reversed such that the first injection is a formulation of antibiotic or control and the second injection contains the bacterial inoculum. The time between administration of the antibiotic and bacteria may be hours, days, weeks or months.
A single 20G 3.5″ spinal needle is positioned directly into the edge of the nucleus pulposus of each disc. Following confirmation of positioning of the needles a second 25G 4.69″ needle primed with the dose solution is inserted into the first needle and the tip placed into the middle of the nucleus pulposus. Following confirmation of positioning of the second needles each disc is injected with the bacteria. The inner needles will then be removed. Just prior to the 1 hour post-dose bacteria time-point a new 25G 4.69″ needle, primed with the dose solution, is inserted into the 20G 3.5″ and positioned into the middle of the nucleus pulposus. The second treatment is dose given via this needle, 1 hour post the first dose.
Bacterial infection: A single 20G 3.5″ spinal needle is positioned directly into the edge of the nucleus pulposus of each disc. Following confirmation of positioning of the needles a second 25G 4.69″ needle primed with the dose solution is inserted into the first needle and the tip placed into the middle of the nucleus pulposus. Following confirmation of positioning of the second needles each disc is injected with the bacteria. The needles will then be removed. The animals are repositioned to access the other side of the spine.
Injection of formulation: A second 20G 3.5″ spinal needle is positioned directly into the edge of the nucleus pulposus on the opposite side to the first injection of each disc. Just prior to time-point for administration a new 25G 4.69″ needle, primed with the dose solution, is inserted into the 20G 3.5″ and positioned into the middle of the nucleus pulposus. The second treatment is dose given via this needle.
At set time-points post-dose the sheep is killed. The injected vertebrae discs are dissected out and the nucleus pulposus from each disc is removed. In addition, an extra untreated disc is sampled to provide control tissue. The disc is removed after all of the treated discs for the particular animal with care to ensure no contamination between control and treated samples.
The sheep intradiscal infection model of Example 1 was used to evaluate the in vivo efficacy of therapeutically dosed vancomycin.

Data set [4] relates to S. aureus. The experiment in a line: Sheep model of S. aureus intradiscal infection, prophylactic dosing. It is filed as in vivo. To be noted: Example 3; 5 mg/disc on day 0, discreet infection with 10^3 S. aureus per disc on day 3, harvest 24 h after infection. As to the method: as §1
The order of the injections may be reversed such that the first injection is a formulation of antibiotic and the second injection contains the bacterial inoculum. The time between administration of the antibiotic and bacteria may be hours, days, weeks or months. The second injection may be co-localised or discreet e.g. injected on the same side of the disc as the first injection or injected on the other side of the disc to the first injection respectively.
Discs were treated with vancomycin (5 mg/disc) on day 0 and on day 3 were discreetly infected with 10^3 S. aureus per disc. […]

Converted amounts (≈) assume the structure as drawn.

As for `CC(=O)NC[C@H]1CN(c2ccc(N3CCOCC3)c(F)c2)C(=O)O1` [Linezolid], in data set [1], the “input antibiotic accounted for (released) after 72 h” value was determined as 57%. In addition, in the data set with Gram-positive bacteria, the MIC is 4 µg/mL (≈ 11.9 µM).

For `CN[C@H](CC(C)C)C(=O)N[C@H]1C(=O)N[C@@H](CC(N)=O)C(=O)N[C@H]2C(=O)N[C@H]3C(=O)N[C@H](C(=O)N[C@H](C(=O)O)c4cc(O)cc(O)c4-c4cc3ccc4O)[C@H](O)c3ccc(c(Cl)c3)Oc3cc2cc(c3O[C@@H]2O[C@H](CO)[C@@H](O)[C@H](O)[C@H]2O[C@H]2C[C@](C)(N)[C@H](O)[C@H](C)O2)Oc2ccc(cc2Cl)[C@H]1O` [Vancomycin], the “effect on MRSA otitis media” value in data set [2] is “completely cures the otitis media caused by MRSA infection”. In addition, the “input antibiotic accounted for (released) after 72 h” value in data set [1] was found to be 92%. The discs sterilized in the data set on S. aureus [3] (Example 2, discreet dosing, 5 mg vancomycin/disc) was 5 of 7; in the data set with S. aureus [3] (Example 2, discreet dosing, 20 mg vancomycin/disc), 3 of 7; in the data set on S. aureus [3] (Example 2, vancomycin in Omnipaque with 0.5% hyaluronic acid, co-localised dosing, within 24 h), “all the discs were effectively sterilized”. Besides, in the data set on S. aureus [3] (Example 2, discrete dosing groups), the “reduction in average bacterial burden” value is given as not above 3 log10. Moreover, the sterile discs with S. aureus [3] (Example 9, discrete dosing) is 3 of 8. Moreover, the “reduction in average disc bacterial burden” value in the data set with S. aureus [3] (Example 9, discrete dosing from the other side of the disc) was “did not significantly reduce average bacterial disc burden”. Further, in the data set with S. aureus [4], the “average reduction in bacterial burden” value was more than 3 log10.
